Reference: patent publication US10815197B2, “N-sulfonyl benzamides as voltage-gated sodium channel inhibitors” (SHANGHAI HAIYAN PHARMACEUTICAL TECHNOLOGY CO., LTD., priority 2016, dated 2020)

Key:
hNav1.7 = target: T1, hNav1.7 (Homo sapiens, UniProt Q15858); assay: Manual patch clamp experiment hNav1.7 (CHO-hNav1.7 stable cell line); format: cell-based; conditions: for inhibition at 0.1 µM: compound at 100 nM, read-out: Inhibition of Nav1.7 100 nM(%); for inhibition at 1 µM: compound at 1000 nM, read-out: Inhibition of Nav1.7 1000 nM(%)
T1 construct: host or cells: CHO
Description: Assay 1: Manual Patch Clamp Experiment of Sodium Ion (hNav1.7, hNav1.5 and hNaV1.8) and Calcium Ion (hCav3.2) Channels
hNav1.7, hNav1.5 Manual Patch Clamp Experiment:
Patch voltage clamp electrophysiology allows for the direct measurement and quantification of current block of voltage-gated sodium channels (NaV's), and allows the determination of the time and voltage-dependence of block which has been interpreted as differential binding to the resting, open and inactivated states of the sodium channel to reflect the compound's inhibitory or activating effects (Hille, B., Journal of General Physiology (1977), 69: 497-515).
Representative compounds of the present invention were subject to a manual patch clamp experiment and the purpose of this study was to test the effect of compounds on this ion channel current on a stable cell line transfected with a specific ion channel using a manual patch clamp method. The used stable cell lines CHO-hNav1.7 and HEK-hNav1.5 were from Genionics and WuXi Apptec (Shanghai) respectively.
Manual patch clamp experimental program is as follows:
(1) Preparation of solutions and compounds: The whole cell patch clamp technique was used to record hNav1.7 and hNav1.5 currents. In the experiment, the composition of extracellular fluid (mM): HEPES: 5, NaCl: 40, KCl: CaCl2: 1, MgCl2: 1, CdCl2: 0.1, TEA-Cl: 20. The pH was adjusted to 7.3 with NaOH and the osmotic pressure was adjusted to 310-320 mOsm with sucrose, filtered and stored at 4° C. The composition of the intracellular fluid (mM): HEPES: 10, NaCl: 10, CsOH: 5, CsF: 140, EGTA: 1. The pH was adjusted to 7.3 with CsOH and the osmotic pressure was adjusted to 280-290 mOsm with sucrose, filtered and stored at −20° C.
The positive control and the test compound were firstly dissolved in 100% DMSO (Sigma-Aldrich, D2650), configured as stock solution at a concentration (100 nM, 1000 nM).) The above stock solution was serially diluted with DMSO prior to the experiment, the solution was further diluted with extracellular solution to obtain the test solution of the desired concentration.
(2) Manual Patch Clamp Experiment: The cell suspension was added to a 35 mm petri dish and placed on an inverted microscope stage. The cells were perfused with an extracellular fluid and the flow rate was 1-2 mL/min after cell adherence. The glass microelectrode was prepared in two steps by a microelectrode puller with an inlet water resistance of 2-5 MΩ. A/D-D/A digital-analog conversion was performed by Digidata 1440 (Molecular Devices) and pCLAMP software (version 10.2, Molecular Devices) for stimulation and signal acquisition; the signal was amplified by patch clamp amplifier (Multiclamp 700B, Molecular Devices), and filtering is 4 KHz.
Two different voltage stimulation procedures were used in the hNav1.7 and hNav1.5 manual patch clamp experiments.
One is the inactivation stimulation program, the clamp potential is set at V1/2 of the corresponding channel, i.e., about 50% of the channels are inactivated, then the voltage is applied to −120 mV for 50 ms, then depolarized to −10 mV for 20 ms leading to sodium current, and finally returned to the clamp potential. This stimulation program can also be called channel state-dependent voltage stimulation program.
The other is the non-inactivation stimulation program, the clamp potential is maintained at −120 mV, voltage stimulation is given to −10 mV for 20 ms leading to sodium current, and finally returned to the clamp potential. That is, all channels have not experienced inactivation status, but activate directly from the resting state under the conditions of the stimulation program.
The time intervals of these two voltage stimulation programs were 10 s. The inhibitory effect of the compound was calculated by the change of the current before and after dosing, the IC50 value was fitted by the Hill equation.

[1] = target: T2, hERG potassium ion channel (Homo sapiens, UniProt Q12809); assay: Effect on hERG potassium ion channel (CHO hERG cells, manual patch clamp); format: cell-based; conditions: final 10 μM test concentration, read-out: hERG inhibitory concentration IC50
T2 construct: host or cells: CHO
Description: Assay 2: Effect on hERG Potassium Ion Channel 2.1 Cell Culture 2.1.1 Cells used in this experiment were CHO cell lines (supplied by Sophion Bioscience, Denmark) which were hERG cDNA transfectant and stably express hERG channels, and cell progeny was P15. Cells were cultured in medium containing the following ingredients Invitrogen): Ham's F12 medium, 10% (v/v) inactivated fetal bovine serum, […] Geneticin. 2.1.2 CHO hERG cells were grown in Petri dishes containing the above medium and cultured in an incubator containing 5% CO2 at 37° C. CHO hERG cells were transferred onto round glass plates in Petri dishes, and grown on the same culture medium under culture conditions as above for 24 h to 48 h prior to the electrophysiological experiments, and the density of CHO hERG cells on each round glass plate needs to meet the requirements that the vast majority of cells are independent and individual. 2.2 Experimental Solution The following solutions (supplied by Sophion) were used for electrophysiological recording as shown in Table 3. The reagents used in this test were provided by Sigma. [table] 2.3 Electrophysiological Recording System In this experiment, whole-cell current recording was performed using a manual patch clamp system (HEKA EPC-10 signal amplification and digital conversion system, purchased from HEKA Electronic, Germany). The round glass slide, surface of which CHO hERG cells were grown on was placed in an electrophysiological recording slot under an inverted microscope. Extracellular fluid was used for steady perfision in recording slot (approximately 1 ml per minute). A conventional whole-cell patch clamp current recording technique was used in the experiment. Unless otherwise specified, experiments were performed at normal room temperature (25° C.). Cell clamping was at −80 mV. Cell clamping voltage depolarized to +20 mV to activate hERG potassium channel, clamping to −50 mV after 5 sec to eliminate inactivation and generate tail currents. The tail current peak was used as a value for hERG current. The hERG potassium current recorded in the above steps could be superfused for test drug after the steady perfusion state of the extracellular fluid in the recording slot is stabilized until the inhibition of the hERG current by the drug reached a steady state. The coincidence of the last three consecutive current recording lines was generally used as a criterion to determine whether the state is stable. After reaching a steady state, perfused with extracellular fluid until hERG current returned to the value before the drug adding. One or more drugs could be tested on a single cell, or multiple concentrations of the same drug, but needed to be rinsed with extracellular fluid between different drugs. […] 2.4 Compound Treatment and Dilution The compound was firstly dissolved in DMSO to a concentration of 10 mM and then the compound was diluted 1000-fold to the final […] test concentration using an extracellular solution. The final concentration of DMSO in the compound test solution was equal to 0.1%. […] All stock solutions and test solutions were subjected to regular 5-10 minute sonication and shaken to ensure complete dissolution of the compound. 2.5 Data Analysis The test data were analyzed by the data analysis software provided by HEKA Patchmaster (V2x73.2), Microsoft Excel and Graphpad Prism 5.0.

T1 sequence (Q15858 whole entry): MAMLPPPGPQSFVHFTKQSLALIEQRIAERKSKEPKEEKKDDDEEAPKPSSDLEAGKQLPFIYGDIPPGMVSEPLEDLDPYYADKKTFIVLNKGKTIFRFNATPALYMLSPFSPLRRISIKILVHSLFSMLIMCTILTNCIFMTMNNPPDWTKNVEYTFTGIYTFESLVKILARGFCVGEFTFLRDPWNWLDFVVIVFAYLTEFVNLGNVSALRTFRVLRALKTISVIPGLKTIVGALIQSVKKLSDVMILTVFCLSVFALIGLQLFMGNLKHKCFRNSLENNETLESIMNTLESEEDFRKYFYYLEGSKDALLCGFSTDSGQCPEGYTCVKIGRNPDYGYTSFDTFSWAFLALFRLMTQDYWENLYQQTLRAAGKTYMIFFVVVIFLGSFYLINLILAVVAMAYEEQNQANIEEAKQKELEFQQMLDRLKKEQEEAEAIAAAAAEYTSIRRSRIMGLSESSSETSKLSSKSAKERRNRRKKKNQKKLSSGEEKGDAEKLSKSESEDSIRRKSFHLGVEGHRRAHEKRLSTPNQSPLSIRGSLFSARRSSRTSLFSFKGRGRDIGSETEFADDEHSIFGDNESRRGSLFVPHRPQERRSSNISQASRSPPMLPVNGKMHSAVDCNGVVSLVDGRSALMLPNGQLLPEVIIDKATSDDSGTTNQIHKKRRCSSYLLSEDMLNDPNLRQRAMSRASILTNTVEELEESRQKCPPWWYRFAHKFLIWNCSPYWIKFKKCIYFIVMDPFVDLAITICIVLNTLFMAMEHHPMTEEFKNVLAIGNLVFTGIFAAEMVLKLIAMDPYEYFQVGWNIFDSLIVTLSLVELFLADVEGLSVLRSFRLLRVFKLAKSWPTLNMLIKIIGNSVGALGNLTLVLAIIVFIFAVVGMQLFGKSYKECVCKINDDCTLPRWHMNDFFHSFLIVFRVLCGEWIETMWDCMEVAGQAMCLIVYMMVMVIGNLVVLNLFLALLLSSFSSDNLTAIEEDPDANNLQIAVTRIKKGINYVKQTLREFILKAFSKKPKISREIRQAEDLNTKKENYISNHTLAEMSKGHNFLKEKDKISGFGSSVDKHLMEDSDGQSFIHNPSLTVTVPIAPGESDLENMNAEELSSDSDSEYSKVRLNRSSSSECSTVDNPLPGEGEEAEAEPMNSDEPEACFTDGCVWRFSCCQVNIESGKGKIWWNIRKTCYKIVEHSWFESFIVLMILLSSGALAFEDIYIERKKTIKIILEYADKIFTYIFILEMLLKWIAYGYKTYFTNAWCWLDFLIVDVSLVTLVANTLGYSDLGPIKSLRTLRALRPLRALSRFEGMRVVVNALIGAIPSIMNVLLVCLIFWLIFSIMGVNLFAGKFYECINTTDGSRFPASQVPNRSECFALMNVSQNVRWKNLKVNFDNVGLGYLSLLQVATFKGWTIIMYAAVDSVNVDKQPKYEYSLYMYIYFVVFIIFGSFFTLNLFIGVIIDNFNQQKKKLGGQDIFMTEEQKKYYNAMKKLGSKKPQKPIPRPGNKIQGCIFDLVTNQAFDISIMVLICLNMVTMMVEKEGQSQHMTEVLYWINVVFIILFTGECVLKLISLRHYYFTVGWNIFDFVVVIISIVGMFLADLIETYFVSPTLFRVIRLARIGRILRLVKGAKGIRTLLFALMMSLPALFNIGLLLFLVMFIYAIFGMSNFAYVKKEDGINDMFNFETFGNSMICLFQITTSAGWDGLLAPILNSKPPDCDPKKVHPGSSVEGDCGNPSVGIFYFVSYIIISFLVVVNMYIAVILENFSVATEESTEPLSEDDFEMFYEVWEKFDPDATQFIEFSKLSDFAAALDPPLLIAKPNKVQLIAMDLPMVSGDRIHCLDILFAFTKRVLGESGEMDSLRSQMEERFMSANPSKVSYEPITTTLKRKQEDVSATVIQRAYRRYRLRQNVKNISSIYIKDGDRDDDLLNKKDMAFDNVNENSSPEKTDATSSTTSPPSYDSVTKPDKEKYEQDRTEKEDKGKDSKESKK
T2 sequence (Q12809 whole entry): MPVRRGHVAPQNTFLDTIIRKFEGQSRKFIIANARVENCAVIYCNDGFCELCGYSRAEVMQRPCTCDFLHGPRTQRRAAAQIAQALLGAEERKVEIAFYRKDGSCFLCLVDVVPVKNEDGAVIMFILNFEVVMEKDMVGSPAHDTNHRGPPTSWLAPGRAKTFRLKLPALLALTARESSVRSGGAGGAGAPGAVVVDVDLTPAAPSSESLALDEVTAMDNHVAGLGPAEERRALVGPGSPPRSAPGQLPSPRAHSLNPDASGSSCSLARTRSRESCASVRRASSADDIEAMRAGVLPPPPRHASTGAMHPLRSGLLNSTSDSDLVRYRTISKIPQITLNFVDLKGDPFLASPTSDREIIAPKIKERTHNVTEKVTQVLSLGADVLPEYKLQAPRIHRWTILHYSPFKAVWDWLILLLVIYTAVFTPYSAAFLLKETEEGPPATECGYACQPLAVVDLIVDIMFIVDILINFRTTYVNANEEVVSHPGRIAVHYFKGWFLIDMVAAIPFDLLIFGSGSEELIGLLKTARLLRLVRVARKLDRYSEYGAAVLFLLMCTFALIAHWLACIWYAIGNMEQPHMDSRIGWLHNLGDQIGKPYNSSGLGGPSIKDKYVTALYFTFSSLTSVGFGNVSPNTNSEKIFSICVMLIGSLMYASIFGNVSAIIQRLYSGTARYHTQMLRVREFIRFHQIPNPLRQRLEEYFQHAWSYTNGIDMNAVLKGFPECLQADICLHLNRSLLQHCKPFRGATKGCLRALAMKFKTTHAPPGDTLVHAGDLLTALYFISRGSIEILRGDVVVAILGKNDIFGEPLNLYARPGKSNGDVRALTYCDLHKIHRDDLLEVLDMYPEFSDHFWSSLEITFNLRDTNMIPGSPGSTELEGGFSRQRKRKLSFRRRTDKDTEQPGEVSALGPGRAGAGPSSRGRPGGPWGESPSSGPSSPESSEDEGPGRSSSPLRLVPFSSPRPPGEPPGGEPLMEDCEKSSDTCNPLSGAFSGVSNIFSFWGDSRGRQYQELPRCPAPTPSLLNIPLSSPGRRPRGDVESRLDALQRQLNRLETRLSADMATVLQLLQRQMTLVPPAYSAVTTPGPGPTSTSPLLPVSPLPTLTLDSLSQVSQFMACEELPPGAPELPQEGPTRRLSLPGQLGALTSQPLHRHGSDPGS

Row | inhibition at 0.1 µM (hNav1.7) [%] | inhibition at 1 µM (hNav1.7) [%] | Compound | IC50 [1] [µM]
1 | 83.3 | 100 | Cc1cc(N2CCN(Cc3cc(F)c(C(=O)NS(=O)(=O)C4CC4)cc3Cl)CC2)c(F)cc1Cl [Compound Z-186] | > 10
2 | 90.8 | 99.5 | Cc1cc(N2CCN(Cc3cc(F)c(C(=O)NS(=O)(=O)C4CC4)cc3Cl)CC2)c(C)cc1Cl [Compound Z-183] | > 10
3 | 89.7 | 100 | Cc1c(Cl)ccc(N2CCN(Cc3cc(F)c(C(=O)NS(=O)(=O)C4CC4)cc3Cl)CC2)c1Cl [Compound Z-187] | > 10
